Laboratory results published in patent US11173151B2, “Substituted triazole derivatives and uses thereof” (BAYER AKTIENGESELLSCHAFT, priority 2017, dated 2021).

What was measured:
human V1a receptor = target: T1, human V1a receptor (Homo sapiens, UniProt P37288); test: Cellular in vitro assay for determining vasopressin receptor activity, V1a receptor cell line (CHO, aequorin luminescence); type: cell-based; conditions: for IC50: CHO cell line transfected with human V1a receptor, [Arg]-vasopressin at EC50 concentration, read-out: IC50 hV1a; for ratio IC50 hV2/hV1a: selectivity ratio IC50 hV2 / IC50 hV1a
T1 construct: expressed in transfected cells; host or cells: CHO K1 (ATCC), also stably transfected with a modified aequorin
Procedure, shortened: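 Antagonism is measured in stable CHO K1 transfectants coexpressing the Gαq-coupled receptor and a calcium-sensitive aequorin photoprotein. Agonist challenge uses [Arg]-vasopressin at EC50 after a 10-minute compound exposure; IC50 values come from the luminescence signal.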

human V2 receptor = target: T2, human V2 receptor (Homo sapiens, UniProt P30518); test: Cellular in vitro assay for determining vasopressin receptor activity, V2 receptor cell line (CHO, CRE-luciferase); type: cell-based; conditions: CHO cell line transfected with human V2 receptor; [Arg8]-vasopressin at EC50 concentration; read-out: IC50 hV2
T2 construct: expressed in transfected cells; host or cells: CHO K1 (ATCC) expressing firefly luciferase under a CRE-responsive promoter
T2 sequence (P30518 whole entry): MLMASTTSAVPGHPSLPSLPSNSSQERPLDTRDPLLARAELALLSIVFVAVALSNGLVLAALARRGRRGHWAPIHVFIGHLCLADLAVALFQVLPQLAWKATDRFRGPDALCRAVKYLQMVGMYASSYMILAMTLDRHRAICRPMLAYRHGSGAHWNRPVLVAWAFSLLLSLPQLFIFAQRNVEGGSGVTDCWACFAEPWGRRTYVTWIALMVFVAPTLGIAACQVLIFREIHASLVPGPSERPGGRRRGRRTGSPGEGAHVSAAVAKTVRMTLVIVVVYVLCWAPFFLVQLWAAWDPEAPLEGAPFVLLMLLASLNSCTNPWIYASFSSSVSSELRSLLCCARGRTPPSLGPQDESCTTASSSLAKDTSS

T1 sequence (P37288 whole entry): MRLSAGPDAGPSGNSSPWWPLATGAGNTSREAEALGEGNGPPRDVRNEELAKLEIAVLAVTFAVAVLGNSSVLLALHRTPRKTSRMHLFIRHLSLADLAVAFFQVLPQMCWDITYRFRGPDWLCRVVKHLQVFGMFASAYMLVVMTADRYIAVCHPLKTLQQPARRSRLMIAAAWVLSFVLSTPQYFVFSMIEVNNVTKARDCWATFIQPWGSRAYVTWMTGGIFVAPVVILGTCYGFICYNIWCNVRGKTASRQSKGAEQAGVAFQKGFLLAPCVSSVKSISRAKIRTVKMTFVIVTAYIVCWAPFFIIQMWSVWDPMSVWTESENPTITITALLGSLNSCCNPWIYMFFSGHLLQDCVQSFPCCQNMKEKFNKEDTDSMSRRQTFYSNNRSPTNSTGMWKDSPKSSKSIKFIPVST

Structure (SMILES) | IC50 (human V1a receptor) [nM] | ratio IC50 hV2/hV1a (human V1a receptor) | IC50 (human V2 receptor) [nM]
COC[C@@H]1CCCN1C(=O)c1cccc(C(F)(F)F)c1-n1cnc(Cn2nc(-c3ccc(Cl)cc3)n(C[C@H](O)C(F)(F)F)c2=O)n1 [Example 423, 5-(4-Chlorophenyl)-2-({1-[2-{[(2S)-2-(methoxymethyl)pyrrolidin-1-yl]carbonyl}-6-(trifluoromethyl)phenyl]-1H-1,2,4-triazol-3-yl}methyl)-4-[(2S)-3,3,3-trifluoro-2-hydroxypropyl]-2,4-dihydro-3H-1,2,4-triazol-3-one] | 40 | 472.5 | 18900
CC(C)(N)CNC(=O)c1cc(F)ccc1-n1cnc(Cn2nc(-c3ccc(Cl)cc3)n(C[C@H](O)C(F)(F)F)c2=O)n1 [Example 424, N-(2-Amino-2-methylpropyl)-2-[3-({3-(4-chlorophenyl)-5-oxo-4-[(2S)-3,3,3-trifluoro-2-hydroxypropyl]-4,5-dihydro-1H-1,2,4-triazol-1-yl}methyl)-1H-1,2,4-triazol-1-yl]-5-fluorobenzamide] | 11.5 | 230.4 | 2650
CNC(=O)c1cc(F)ccc1-n1cnc(Cn2nc(-c3ccc(Cl)cc3)n(C[C@H](O)C(F)(F)F)c2=O)n1 [Example 425, 2-[3-({3-(4-Chlorophenyl)-5-oxo-4-[(2S)-3,3,3-trifluoro-2-hydroxypropyl]-4,5-dihydro-1H-1,2,4-triazol-1-yl}methyl)-1H-1,2,4-triazol-1-yl]-5-fluoro-N-methylbenzamide] | 9.85 | 10.2 | 100
O=C(NCC(F)(F)F)c1cc(F)ccc1-n1cnc(Cn2nc(-c3ccc(Cl)cc3)n(C[C@H](O)C(F)(F)F)c2=O)n1 [Example 426, 2-[3-({3-(4-Chlorophenyl)-5-oxo-4-[(2S)-3,3,3-trifluoro-2-hydroxypropyl]-4,5-dihydro-1H-1,2,4-triazol-1-yl}methyl)-1H-1,2,4-triazol-1-yl]-5-fluoro-N-(2,2,2-trifluoroethyl)benzamide] | 19 | 6.6 | 125
O=C(NCC(F)(F)F)c1cc(Cl)ccc1-n1cnc(Cn2nc(-c3ccc(Cl)cc3)n(C[C@H](O)C(F)(F)F)c2=O)n1 [Example 427, 5-Chloro-2-[3-({3-(4-chlorophenyl)-5-oxo-4-[(2S)-3,3,3-trifluoro-2-hydroxypropyl]-4,5-dihydro-1H-1,2,4-triazol-1-yl}methyl)-1H-1,2,4-triazol-1-yl]-N-(2,2,2-trifluoroethyl)benzamide] | 21 | 3.5 | 72.7
O=C(NCC(F)(F)F)c1ncccc1-n1cnc(Cn2nc(-c3ccc(Cl)cc3)n(C[C@H](O)C(F)(F)F)c2=O)n1 [Example 428, 3-[3-({3-(4-Chlorophenyl)-5-oxo-4-[(2S)-3,3,3-trifluoro-2-hydroxypropyl]-4,5-dihydro-1H-1,2,4-triazol-1-yl}methyl)-1H-1,2,4-triazol-1-yl]-N-(2,2,2-trifluoroethyl)pyridine-2-carboxamide] | 41 | 31.5 | 1290
O=C(NCC1CC1)c1ncccc1-n1cnc(Cn2nc(-c3ccc(Cl)cc3)n(C[C@H](O)C(F)(F)F)c2=O)n1 [Example 432, 3-[3-({3-(4-Chlorophenyl)-5-oxo-4-[(2S)-3,3,3-trifluoro-2-hydroxypropyl]-4,5-dihydro-1H-1,2,4-triazol-1-yl}methyl)-1H-1,2,4-triazol-1-yl]-N-(cyclopropylmethyl)pyridine-2-carboxamide] | 44.5 | 21.2 | 945
O=C(c1ncccc1-n1cnc(Cn2nc(-c3ccc(Cl)cc3)n(C[C@H](O)C(F)(F)F)c2=O)n1)N1CCCCC1 [Example 445, 5-(4-Chlorophenyl)-2-({1-[2-(piperidin-1-ylcarbonyl)pyridin-3-yl]-1H-1,2,4-triazol-3-yl}methyl)-4-[(2S)-3,3,3-trifluoro-2-hydroxypropyl]-2,4-dihydro-3H-1,2,4-triazol-3-one] | 20 | 182.5 | 3650
O=C(NC1(C(F)(F)F)CC1)c1ncccc1-n1cnc(Cn2nc(-c3ccc(Cl)cc3)n(C[C@H](O)C(F)(F)F)c2=O)n1 [Example 447, 3-[3-({3-(4-Chlorophenyl)-5-oxo-4-[(2S)-3,3,3-trifluoro-2-hydroxypropyl]-4,5-dihydro-1H-1,2,4-triazol-1-yl}methyl)-1H-1,2,4-triazol-1-yl]-N-[1-(trifluoromethyl)cyclopropyl]pyridine-2-carboxamide] | 29.5 | 27.6 | 815

Other lines, results leading:

IC50 (human V1a receptor) [nM] | ratio IC50 hV2/hV1a (human V1a receptor) | IC50 (human V2 receptor) [nM] | Structure (SMILES)
16.5 | 66.7 | 1100 | O=C(NC1CC1)c1ncccc1-n1cnc(Cn2nc(-c3ccc(Cl)cc3)n(C[C@H](O)C(F)(F)F)c2=O)n1 [Example 431, 3-[3-({3-(4-Chlorophenyl)-5-oxo-4-[(2S)-3,3,3-trifluoro-2-hydroxypropyl]-4,5-dihydro-1H-1,2,4-triazol-1-yl}methyl)-1H-1,2,4-triazol-1-yl]-N-cyclopropylpyridine-2-carboxamide]
71 | 31.0 | 2200 | NC(=O)[C@H]1CC(F)(F)CN1C(=O)c1ncccc1-n1cnc(Cn2nc(-c3ccc(Cl)cc3)n(C[C@H](O)C(F)(F)F)c2=O)n1 [Example 433, 1-({3-[3-({3-(4-Chlorophenyl)-5-oxo-4-[(2S)-3,3,3-trifluoro-2-hydroxypropyl]-4,5-dihydro-1H-1,2,4-triazol-1-yl}methyl)-1H-1,2,4-triazol-1-yl]pyridin-2-yl}carbonyl)-4,4-difluoro-D-prolinamide]
82 | 32.9 | 2700 | NC(=O)[C@@H]1CC(F)(F)CN1C(=O)c1ncccc1-n1cnc(Cn2nc(-c3ccc(Cl)cc3)n(C[C@H](O)C(F)(F)F)c2=O)n1 [Example 434, 1-({3-[3-({3-(4-Chlorophenyl)-5-oxo-4-[(2S)-3,3,3-trifluoro-2-hydroxypropyl]-4,5-dihydro-1H-1,2,4-triazol-1-yl}methyl)-1H-1,2,4-triazol-1-yl]pyridin-2-yl}carbonyl)-4,4-difluoro-L-prolinamide]
40.5 | 91.4 | 3700 | O=C(c1ncccc1-n1cnc(Cn2nc(-c3ccc(Cl)cc3)n(C[C@H](O)C(F)(F)F)c2=O)n1)N1CCC(F)(F)C1 [Example 437, 5-(4-Chlorophenyl)-2-[(1-{2-[(3,3-difluoropyrrolidin-1-yl)carbonyl]pyridin-3-yl}-1H-1,2,4-triazol-3-yl)methyl]-4-[(2S)-3,3,3-trifluoro-2-hydroxypropyl]-2,4-dihydro-3H-1,2,4-triazol-3-one]
86 | 103.5 | 8900 | CC1(C)CN(C(=O)c2ncccc2-n2cnc(Cn3nc(-c4ccc(Cl)cc4)n(C[C@H](O)C(F)(F)F)c3=O)n2)CCO1 [Example 438, 5-(4-Chlorophenyl)-2-[(1-{2-[(2,2-dimethylmorpholin-4-yl)carbonyl]pyridin-3-yl}-1H-1,2,4-triazol-3-yl)methyl]-4-[(2S)-3,3,3-trifluoro-2-hydroxypropyl]-2,4-dihydro-3H-1,2,4-triazol-3-one]
53.5 | 24.0 | 1280 | O=C(NC1CC(F)(F)C1)c1ncccc1-n1cnc(Cn2nc(-c3ccc(Cl)cc3)n(C[C@H](O)C(F)(F)F)c2=O)n1 [Example 439, 3-[3-({3-(4-Chlorophenyl)-5-oxo-4-[(2S)-3,3,3-trifluoro-2-hydroxypropyl]-4,5-dihydro-1H-1,2,4-triazol-1-yl}methy)-1H-1,2,4-triazol-1-yl]-N-(3,3-difluorocyclobutyl)pyridine-2-carboxamide]
220 | 102.3 | 22500 | O=C1CN(C(=O)c2ncccc2-n2cnc(Cn3nc(-c4ccc(Cl)cc4)n(C[C@H](O)C(F)(F)F)c3=O)n2)CCN1 [Example 443, 4-({3-[3-({3-(4-Chlorophenyl)-5-oxo-4-[(2S)-3,3,3-trifluoro-2-hydroxypropyl]-4,5-dihydro-1H-1,2,4-triazol-1-yl}methyl)-1H-1,2,4-triazol-1-yl]pyridin-2-yl}carbonyl)piperazin-2-one]
47 | 457.4 | 21500 | O=C(c1ncccc1-n1cnc(Cn2nc(-c3ccc(Cl)cc3)n(C[C@H](O)C(F)(F)F)c2=O)n1)N1CCOCC1 [Example 446, 5-(4-Chlorophenyl)-2-({1-[2-(morpholin-4-ylcarbonyl)pyridin-3-yl]-1H-1,2,4-triazol-3-yl}methyl)-4-[(2S)-3,3,3-trifluoro-2-hydroxypropyl]-2,4-dihydro-3H-1,2,4-triazol-3-one]
39.5 | 31.6 | 1250 | O=C(c1ncccc1-n1cnc(Cn2nc(-c3ccc(Cl)cc3)n(C[C@H](O)C(F)(F)F)c2=O)n1)N1CCC[C@H]1C(F)(F)F [Example 450, 5-(4-Chlorophenyl)-4-[(2S)-3,3,3-trifluoro-2-hydroxypropyl]-2-{[1-(2-{[(2S)-2-(trifluoromethyl)pyrrolidin-1-yl]carbonyl}pyridin-3-yl)-1H-1,2,4-triazol-3-yl]methyl}-2,4-dihydro-3H-1,2,4-triazol-3-one]
110 | 9.3 | 1020 | O=C(c1ncccc1-n1cnc(Cn2nc(-c3ccc(Cl)cc3)n(C[C@H](O)C(F)(F)F)c2=O)n1)N1CCC[C@@H]1C(F)(F)F [Example 451, 5-(4-Chlorophenyl)-4-[(2S)-3,3,3-trifluoro-2-hydroxypropyl]-2-{[1-(2-{[(2R)-2-(trifluoromethyl)pyrrolidin-1-yl]carbonyl}pyridin-3-yl)-1H-1,2,4-triazol-3-yl]methyl}-2,4-dihydro-3H-1,2,4-triazol-3-one]
